Earlier results as cited in patent US10925864B2, “Stable liquid injectable solution of midazolam and pentazocine” (NEON LABORATORIES LIMITED, priority 2015, dated 2021).
Counter-ions that a name gives are not always drawn. Like-named read-outs stand apart in the source and are kept apart here.

Legend:
[1] = water / aqueous solutions
[2] = after IM administration in adults

| SMILES | solubility ([1]; hydrochloride) | Onset time of sedative effects [2] | solubility [1] |
| --- | --- | --- | --- |
| Cc1ncc2n1-c1ccc(Cl)cc1C(c1ccccc1F)=NC2 [hydrochloride salt of midazolam, Midazolam hydrochloride] | soluble in aqueous solutions |  |  |
| Cc1ncc2n1-c1ccc(Cl)cc1C(c1ccccc1F)=NC2 [Midazolam] |  | 15 min | insoluble in water |
